From BindingDB's records for doi:10.3109/14756366.2011.599323 (China Pharmaceutical University, 2012)
Where a SMILES comes first, the peptide text is derived from it.

Assays:
Stromelysin-1 = Stromelysin-1 (Homo sapiens, UniProt P08254); experiment: MMP-3 Activity Assay; conditions: pH 7.4; 37 °C
Protocol: The activity of recombinant human MMP-3 (catalytic domain, Calbiochem) was detected with the substrate Mca-Arg-Pro-Lys-Pro-Val-Glu-Nval-Trp-Arg-Lys(Dnp)-NH2 (substrate II, R&D Systems Europe Ltd) (excitation wavelength = 320 nm, emission wavelength = 405 nm). These assays were performed at 37°C in 100 μl assay buffer. The reaction was started by adding 10 μl MMP-3 stock solution (1 ng/μl) to a 100 μl reaction system with a final substrate concentration of 10 μM, after which the rate of substrate hydrolysis was monitored.

Neutrophil collagenase = Neutrophil collagenase (Homo sapiens, UniProt P22894); experiment: MMP-8 Activity Assay; conditions: pH 7.4; 37 °C
Protocol: Recombinant human MMP-8 was purchased as an active form enzyme (Sino Biological Inc.). The enzyme activity was detected with the same fluorogenic peptidesubstrate as that for MMP-9. All MMP-8 assays were performed at 37°C in 100 μl assay buffer with 20 μl recombinant human MMP-8 (2 ng/μl). The final substrateconcentration was 10 μM.

[1] = target: Matrix metalloproteinase-9 (Homo sapiens, UniProt P14780); experiment: MMP-9 Activity Assay; conditions: pH 7.4; 37 °C
Protocol: Recombinant human MMP-9 was expressed in Sf9 insect cells and purified by gelatin-Sepharose affinity chromatography as described previously16,17. It was activated with 0.01 μM of the catalytic domain of MMP-3 (cd-MMP-3, Calbiochem) in assay buffer (100 mM Tris/HCl, pH 7.4, 100 mM NaCl, 10 mM CaCl2 and 0.01% Tween-20) at 92 ng/μl (1 μM) as a stock solution as described8. Hydrolysis of the substrate Mca-Pro-Leu-Gly-Leu-Dpa-Ala-Arg-NH2 (substrate I, R&D Systems Europe Ltd) was monitored by measuring the increase in fluorescence (excitation wavelength = 328 nm, emission wavelength = 392 nm) [Whittaker et al., Chem. Rev., 99:2735-2776]. All assays were performed at 37°C in 100 μl assay buffer. The reaction was started by adding 10 μl gelatinase B stock solution (0.92 ng/μl) to a 100 μl reaction system with a substrate concentration of 10 μM, after which the rate of substrate hydrolysis was monitored.

[2] = target: Disintegrin and metalloproteinase domain-containing protein 17 (Homo sapiens, UniProt P78536); experiment: TACE Activity Assay; conditions: pH 9.0
Protocol: TACE was purchased as an active form enzyme (R&D Systems). Hydrolysis of the TACE-substrate Mca-Pro-Leu-Ala-Gln-Ala-Val-Dpa-Arg-Ser-Ser-Ser-Arg-NH (substrateIII, R&D Systems Europe Ltd) was monitored by measuring the increase in fluorescence (excitation wavelength = 320 nm, emission wavelength = 405 nm). TACEassays were performed at 37°C in 100 μl assay buffer. The reaction was started by adding 4 μl TACE stock solution (1 ng/μl) to a 100 μl reaction system with a final substrate concentration of 10 μM, after which the rate of substrate hydrolysis was monitored.

Chain of Neutrophil collagenase (P22894 whole entry): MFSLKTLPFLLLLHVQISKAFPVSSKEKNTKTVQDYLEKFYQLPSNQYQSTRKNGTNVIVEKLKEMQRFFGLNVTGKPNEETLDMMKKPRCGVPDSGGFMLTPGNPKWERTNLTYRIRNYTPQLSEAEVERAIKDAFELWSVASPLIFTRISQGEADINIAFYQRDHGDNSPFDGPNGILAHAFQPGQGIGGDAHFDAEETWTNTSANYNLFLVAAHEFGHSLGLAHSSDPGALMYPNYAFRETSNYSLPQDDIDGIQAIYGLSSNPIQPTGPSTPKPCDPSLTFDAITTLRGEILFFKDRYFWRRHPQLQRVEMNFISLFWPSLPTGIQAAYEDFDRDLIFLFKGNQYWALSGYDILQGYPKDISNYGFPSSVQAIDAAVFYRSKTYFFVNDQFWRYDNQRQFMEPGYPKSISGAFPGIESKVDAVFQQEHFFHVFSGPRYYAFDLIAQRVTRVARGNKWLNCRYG
Chain of Disintegrin and metalloproteinase domain-containing protein 17 (P78536 whole entry, the tested form may be a part): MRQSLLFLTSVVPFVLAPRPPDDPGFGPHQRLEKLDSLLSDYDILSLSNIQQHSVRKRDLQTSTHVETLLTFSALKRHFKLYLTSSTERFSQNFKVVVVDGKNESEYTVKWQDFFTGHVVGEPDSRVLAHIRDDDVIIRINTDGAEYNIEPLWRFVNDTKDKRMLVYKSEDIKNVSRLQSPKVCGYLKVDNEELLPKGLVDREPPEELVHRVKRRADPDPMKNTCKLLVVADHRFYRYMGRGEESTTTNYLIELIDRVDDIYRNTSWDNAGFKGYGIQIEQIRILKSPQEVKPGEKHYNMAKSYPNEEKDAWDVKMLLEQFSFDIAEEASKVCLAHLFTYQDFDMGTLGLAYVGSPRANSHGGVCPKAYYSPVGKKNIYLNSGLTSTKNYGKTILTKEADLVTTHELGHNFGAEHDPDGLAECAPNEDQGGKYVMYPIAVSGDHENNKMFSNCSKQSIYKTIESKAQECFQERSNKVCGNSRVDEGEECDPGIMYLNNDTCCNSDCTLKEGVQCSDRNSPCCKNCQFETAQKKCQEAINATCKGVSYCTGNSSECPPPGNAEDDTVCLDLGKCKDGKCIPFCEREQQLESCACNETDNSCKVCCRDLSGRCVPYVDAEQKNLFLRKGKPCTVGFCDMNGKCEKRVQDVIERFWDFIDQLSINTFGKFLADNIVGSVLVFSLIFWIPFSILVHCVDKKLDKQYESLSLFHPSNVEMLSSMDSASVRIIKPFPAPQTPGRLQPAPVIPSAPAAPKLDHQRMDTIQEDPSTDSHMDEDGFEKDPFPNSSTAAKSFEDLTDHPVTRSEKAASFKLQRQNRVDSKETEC
Chain of Stromelysin-1 (P08254 whole entry, the tested form may be a part): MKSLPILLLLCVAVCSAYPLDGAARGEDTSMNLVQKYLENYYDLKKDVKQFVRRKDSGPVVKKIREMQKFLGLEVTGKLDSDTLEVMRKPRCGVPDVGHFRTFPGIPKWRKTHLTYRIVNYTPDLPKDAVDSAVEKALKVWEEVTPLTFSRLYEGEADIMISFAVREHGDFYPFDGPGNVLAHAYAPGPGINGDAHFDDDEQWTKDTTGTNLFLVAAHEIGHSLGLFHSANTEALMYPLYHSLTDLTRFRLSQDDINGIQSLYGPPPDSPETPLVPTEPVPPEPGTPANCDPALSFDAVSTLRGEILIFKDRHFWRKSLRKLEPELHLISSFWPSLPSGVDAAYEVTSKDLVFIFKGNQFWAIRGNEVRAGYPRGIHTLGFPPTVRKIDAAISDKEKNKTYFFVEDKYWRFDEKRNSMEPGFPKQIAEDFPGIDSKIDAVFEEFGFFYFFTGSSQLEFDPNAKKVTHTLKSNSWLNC
Chain of Matrix metalloproteinase-9 (P14780 whole entry, the tested form may be a part): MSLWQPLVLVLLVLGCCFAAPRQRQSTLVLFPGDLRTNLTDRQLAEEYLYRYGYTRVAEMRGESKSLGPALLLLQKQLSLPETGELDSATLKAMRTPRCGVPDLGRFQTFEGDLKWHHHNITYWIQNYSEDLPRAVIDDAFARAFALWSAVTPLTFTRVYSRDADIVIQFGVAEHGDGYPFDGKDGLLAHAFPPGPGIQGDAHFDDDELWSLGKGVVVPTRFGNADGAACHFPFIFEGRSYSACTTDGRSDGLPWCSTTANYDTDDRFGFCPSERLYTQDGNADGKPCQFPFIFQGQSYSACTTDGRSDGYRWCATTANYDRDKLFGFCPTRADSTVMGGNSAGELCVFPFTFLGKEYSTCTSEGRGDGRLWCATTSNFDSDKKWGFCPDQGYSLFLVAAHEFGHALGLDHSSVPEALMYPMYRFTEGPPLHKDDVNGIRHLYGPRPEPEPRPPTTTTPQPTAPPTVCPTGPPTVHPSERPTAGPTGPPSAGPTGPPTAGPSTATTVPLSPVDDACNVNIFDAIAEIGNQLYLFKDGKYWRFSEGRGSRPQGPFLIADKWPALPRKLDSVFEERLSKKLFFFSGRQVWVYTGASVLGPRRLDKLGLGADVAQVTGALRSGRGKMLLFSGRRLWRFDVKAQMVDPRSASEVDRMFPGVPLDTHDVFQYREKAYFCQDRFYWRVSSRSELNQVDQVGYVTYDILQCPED

| SMILES | IC50 (Stromelysin-1) | IC50 (Neutrophil collagenase) | IC50 [1] | IC50 [2] |
| --- | --- | --- | --- | --- |
| N=C(N)NCCC[C@H](NC(=O)[C@H](Cc1ccc(-c2ccccc2)cc1)NC(=O)[C@@H](CS)NC(=O)[C@@H](N)CCCNC(=N)N)C(=O)O [Arg-(D-Cys)-Bip-Arg] (HELM PEPTIDE1{R.[dC].[O=C([C@H](Cc1ccc(-c2ccccc2)cc1)N[*:1])[*:2]].R}$$$$V2.0) | 22.5 µM | 0.9 µM | 0.9 µM | 2.5 µM |
| N=C(N)NCCC[C@H](N)C(=O)N[C@@H](CS)C(=O)N[C@H](Cc1ccc(-c2ccccc2)cc1)C(=O)N[C@H](CCCNC(=N)N)C(=O)O [Arg-Cys-(D-Bip)-(D-Arg)] (HELM PEPTIDE1{R.C.[O=C([C@@H](Cc1ccc(-c2ccccc2)cc1)N[*:1])[*:2]].[dR]}$$$$V2.0) | 19.5 µM | 2.3 µM | 0.75 µM | 20 µM |
